Assay results taken from patent US8778923B2, “GLP-1 receptor modulators” (Receptos, Inc., priority 2011, dated 2014).
Structures can show the parent of a compound that is named as a salt.

target: T1, GLP-1R (Homo sapiens, UniProt P43220); test: EC20 GLP-1(9-36) PAM cAMP assay: dose response of compound in the presence of fixed concentration of GLP-1(9-36); format: cell-based; details: GLP-1R CRE-bla CHO-K1 cells, compound dose response in presence of fixed concentration of GLP-1(9-36)
T1 construct: host or cells: CRE-bla CHO-K1
T1 sequence (P43220 24-463): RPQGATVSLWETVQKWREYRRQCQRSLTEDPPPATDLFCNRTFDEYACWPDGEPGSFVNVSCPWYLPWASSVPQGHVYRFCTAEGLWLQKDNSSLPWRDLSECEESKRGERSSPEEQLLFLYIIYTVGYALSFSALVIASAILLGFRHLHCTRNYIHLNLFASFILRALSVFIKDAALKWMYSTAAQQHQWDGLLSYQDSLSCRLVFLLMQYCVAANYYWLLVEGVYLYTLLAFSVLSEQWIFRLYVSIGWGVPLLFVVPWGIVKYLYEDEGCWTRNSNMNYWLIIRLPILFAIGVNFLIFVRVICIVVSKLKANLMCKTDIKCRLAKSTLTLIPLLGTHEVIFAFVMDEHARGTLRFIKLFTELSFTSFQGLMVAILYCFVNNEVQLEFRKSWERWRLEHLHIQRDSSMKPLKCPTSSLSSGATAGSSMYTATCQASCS
T1 sequence (P01275 100-127 partner limits assumed): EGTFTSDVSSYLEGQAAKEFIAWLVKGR
Method in brief: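 GLP-1R CRE-bla CHO-K1 cells in HBSS/10 mM Hepes/0.1% BSA pH 7.4 with IBMX got a 12-point compound dose response plus fixed EC20 GLP-1(9-36), 30 min at 37 °C. cAMP measured by HitHunter luminescence against a standard curve; EC50 and Emax by non-linear regression.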

| Structure (SMILES) | EC50 [nM] |
| --- | --- |
| CC(C)(C)c1ccc(C(=O)N[C@@H](Cc2ccc(-c3ncc(-c4ccc5ccccc5c4)cn3)cc2)C(=O)O)cc1 [Compound 226] | 800 to 2500 |
| COc1ccc(-c2cnc(-c3ccc(C[C@H](NC(=O)c4ccc(C(C)(C)C)cc4)C(=O)O)cc3)nc2)cc1 [Compound 198] | 5000 to 10000 |
| CCCCCCCOc1ccc(-c2cnc(-c3ccc(C[C@H](NS(=O)(=O)c4ccc(C)cc4)C(=O)O)cc3)nc2)cc1 [Compound 187] | 2500 to 5000 |
| CCCCCCCCCCOc1ccc(-c2cnc(-c3ccc(C[C@H](NC(=O)c4ccc(C(C)(C)C)s4)C(=O)O)cc3)nc2)cc1 [Compound 249, (S)-2-(5-(tert-butyl)thiophene-2-carboxamido)-3-(4-(5-(4-(decyloxy)phenyl)-pyrimidin-2-yl)phenyl)propanoic acid] | 5000 to 10000 |
| CCCCCCCOc1ccc(-c2cnc(-c3ccc(C[C@H](NC(=O)c4ccc(N(C)C)cc4)C(=O)O)cc3)nc2)cc1 [Compound 96] | 2500 to 5000 |
| CCCCCCCOc1ccc(-c2cnc(-c3ccc(C[C@H](NC(=O)c4ccc(OC)c(C)c4)C(=O)O)cc3)nc2)cc1 [Compound 118] | < 800 |
| CC(C)(C)c1ccc(C(=O)N[C@@H](Cc2ccc(-c3ncc(-c4ccc(Cl)cc4)cn3)cc2)C(=O)O)cc1 [Compound 211] | 5000 to 10000 |
| CC(C)(C)c1ccc(C(=O)N[C@@H](Cc2ccc(-c3noc(-c4cccc5c4CCNC5)n3)cc2)C(=O)O)cc1 [Compound 66] | 2500 to 5000 |
| CCCc1ccc(-c2cnc(-c3ccc(C[C@H](NC(=O)c4ccc(C(C)(C)C)cc4)C(=O)O)cc3)nc2)cc1 [Compound 228] | 800 to 2500 |
| CC(C)(C)c1ccc(C(=O)N[C@H](CC(=O)O)Cc2ccc(-c3noc(-c4ccc(N5CCCCC5)cc4)n3)cc2)cc1 [Compound 75] | 2500 to 5000 |
| CCCCCCCOc1ccc(-c2cnc(-c3ccc(C[C@H](NS(=O)(=O)c4ccc(OC)cc4)C(=O)O)cc3)nc2)cc1 [Compound 186] | 800 to 2500 |
| CC(C)Nc1ccc(-c2nc(-c3ccc(C[C@H](NC(=O)c4ccc(C(C)(C)C)cc4)C(=O)O)cc3)no2)cc1 [Compound 65] | 2500 to 5000 |
| CCCCCCCOc1ccc(-c2cnc(-c3ccc(C[C@H](NC(=O)c4ccc(CC(C)C)cc4)C(=O)O)cc3)nc2)cc1 [Compound 100] | 800 to 2500 |
| CCCOc1ccc(-c2nc(-c3ccc(C[C@H](NC(=O)c4ccc(C(C)(C)C)cc4)C(=O)O)cc3)no2)cc1 [Compound 34] | 2500 to 5000 |
| CC(C)(C)c1ccc(C(=O)N[C@@H](Cc2ccc(-c3noc(-c4ccc(-c5ccc(F)cc5F)cc4)n3)cc2)C(=O)O)cc1 [Compound 24] | 800 to 2500 |
| CCCCCCCOc1ccc(-c2cnc(-c3ccc(C[C@H](NC(=O)c4ccc(S(=O)(=O)CC)cc4)C(=O)O)cc3)nc2)cc1 [Compound 127] | 800 to 2500 |
| COc1ccc(-c2ccc(-c3nc(-c4ccc(C[C@H](NC(=O)c5ccc(C(C)(C)C)cc5)C(=O)O)cc4)no3)cc2)cc1OC [Compound 30] | 800 to 2500 |
| CCCCCCOc1ccc(-c2cnc(-c3ccc(C[C@H](NC(=O)c4ccc(C(C)(C)C)cc4)C(=O)O)cc3)nc2)cc1 [Compound 225, (S)-2-(4-(tert-butyl)benzamido)-3-(4-(5-(4-(hexyloxy)phenyl)pyrimidin-2-yl)phenyl)propanoic acid] | < 800 |
| CCCCCCCOc1ccc(-c2cnc(-c3ccc(C[C@H](NC(=O)c4ccc(OC(C)C)cc4)C(=O)O)cc3)nc2)cc1 [Compound 97] | 800 to 2500 |
| CCCCCCCOc1ccc(-c2cnc(-c3ccc(C[C@H](NS(=O)(=O)c4ccc(Cl)c(Cl)c4)C(=O)O)cc3)nc2)cc1 [Compound 188] | 2500 to 5000 |
| CC(C)(C)c1ccc(C(=O)N[C@@H](Cc2ccc(-c3noc(-c4ccc(-c5ccccc5C#N)cc4)n3)cc2)C(=O)O)cc1 [Compound 31] | 800 to 2500 |
| CC(C)(C)c1ccc(-c2cnc(-c3ccc(C[C@@H](NC(=O)c4ccc(C(C)(C)C)s4)C(=O)O)cc3)nc2)cc1 [Compound 182] | 800 to 2500 |
| CC(C)(C)c1ccc(C(=O)N[C@@H](Cc2ccc(-c3ncc(-c4cccc(N5CCCCC5)c4)cn3)cc2)C(=O)O)cc1 [Compound 216] | 2500 to 5000 |

Other lines, results leading:

| EC50 [nM] | Structure (SMILES) |
| --- | --- |
| 800 to 2500 | CN1CCCc2c(-c3nc(-c4ccc(C[C@H](NC(=O)c5ccc(C(C)(C)C)cc5)C(=O)O)cc4)no3)cccc21 [Compound 52] |
| 800 to 2500 | CCCCCCCOc1ccc(-c2cnc(-c3ccc(C[C@H](NC(=O)c4ccc(C(C)(C)C)cc4)C(=O)NCC(=O)O)cc3)nn2)cc1 [Compound 276] |
| 800 to 2500 | COc1ccc(-c2ccc(-c3nc(-c4ccc(C[C@H](NC(=O)c5ccc(C(C)(C)C)cc5)C(=O)O)cc4)no3)cc2)c(OC)c1 [Compound 25] |
| 5000 to 10000 | CCCCCCCOc1ccc(-c2cnc(-c3ccc(C[C@H](NC(=O)c4cc(C(C)(C)C)n[nH]4)C(=O)O)cc3)nc2)cc1 [Compound 136] |
| 5000 to 10000 | CC(C)c1cc(C(=O)N[C@@H](Cc2ccc(-c3ncc(-c4ccc(C(C)(C)C)cc4)cn3)cc2)C(=O)O)cs1 [Compound 179] |
| 800 to 2500 | CCCc1ccc(-c2nc(-c3ccc(C[C@H](NC(=O)c4ccc(C(C)(C)C)cc4)C(=O)O)cc3)no2)cc1 [Compound 46] |
| 800 to 2500 | CCCCCCCOc1ccc(-c2cnc(-c3ccc(C[C@H](NC(=O)c4cc5ccccc5s4)C(=O)O)cc3)nc2)cc1 [Compound 156] |
| 2500 to 5000 | COc1ccc(-c2ccc(-c3nc(-c4ccc(C[C@H](NC(=O)c5ccc(C(C)(C)C)cc5)C(=O)O)cc4)no3)cc2)cc1 [Compound 15] |
| 800 to 2500 | CCCCCCCOc1ccc(-c2cnc(-c3ccc(C[C@@H](NC(=O)c4ccc(C(C)(C)C)s4)C(=O)NCC(=O)O)cc3)nc2)cc1 [Compound 376] |
| < 800 | CC(C)(C)c1ccc(-c2cnc(-c3ccc(C[C@H](NC(=O)c4ccc(C(C)(C)C)s4)C(=O)N[C@H](CO)C(=O)O)cc3)nc2)cc1 [Compound 354] |
| 2500 to 5000 | CC(C)(C)c1ccc(C(=O)N[C@@H](Cc2ccc(-c3ncc(-c4cccc(F)c4)cn3)cc2)C(=O)O)cc1 [Compound 207] |
| 5000 to 10000 | CC(C)(C)c1ccc(C(=O)N[C@@H](Cc2ccc(N3CCN(c4ccc(-c5ccccc5)cc4)CC3)cc2)C(=O)O)cc1 [Compound 266] |
| 5000 to 10000 | CCCCCCCOc1ccc(-c2cnc(-c3ccc(C[C@H](NC(=O)c4ccc(C(F)(F)F)cc4)C(=O)O)cc3)nc2)cc1 [Compound 93] |
| 800 to 2500 | CCCCCCCOc1ccc(-c2cnc(-c3ccc(C[C@H](NC(=O)c4ccc(C(C)C)cc4)C(=O)N[C@@H](CC(=O)O)C(=O)O)cc3)nc2)cc1 [Compound 307] |
| 800 to 2500 | CCCCCCCOc1ccc(-c2cnc(-c3ccc(C[C@H](NC(=O)c4cccc(N)c4)C(=O)O)cc3)nc2)cc1 [Compound 104] |
| 2500 to 5000 | CC(C)(C)c1ccc(C(=O)N[C@@H](Cc2ccc(-c3noc(-c4ccc(-c5cccc(Cl)c5)cc4)n3)cc2)C(=O)O)cc1 [Compound 17] |
| 5000 to 10000 | Cc1ccc(-c2nc(-c3ccc(C[C@H](NC(=O)c4ccc(C(C)(C)C)cc4)C(=O)O)cc3)no2)cc1 [Compound 7] |
| 800 to 2500 | CCCCCCCOc1ccc(C2CCN(c3ccc(C[C@H](NC(=O)c4ccc(C(C)(C)C)cc4)C(=O)O)cc3)CC2)cc1 [Compound 264] |
| 2500 to 5000 | CCCCCCCOc1ccc(-c2c[nH]c(-c3ccc(C[C@H](NC(=O)c4ccc(C(C)(C)C)cc4)C(=O)O)cc3)n2)cc1 [Compound 286, (S)-2-(4-(tert-butyl)benzamido)-3-(4-(4-(4-(heptyloxy)phenyl)-1H-imidazol-2-yl)phenyl)propanoic acid hydrochloride] |
